We go through two molecules from patent US20250084095A1, “Aminopyrimidine Derivatives as Cyclin-Dependent Kinase Inhibitors” (Accutar Biotechnology Inc., priority 2023, published 2025).

The CLint scaled is the rate of metabolic loss divided by the concentration. High values mean rapid turnover, low ones slow turnover. In general, half-life refers to the time needed for the level to fall by half in the phase considered.

Data set [1] in a line: in vitro. To be noted: both, human, hepatocytes.
Method: (§1) Human hepatocyte stability assay was performed at Pharmaron. Human hepatocytes from mixed genders were purchased from BioIVT (Product #X008001). Compounds and positive control were incubated with human hepatocytes. Verapmil was used as a positive control. […] An aliquot of 100 μL of the supernatant was diluted by 100 μL ultra-pure water, and the mixture was used for LC/MS/MS analysis. The percent of parent remaining, intrinsic clearance (CLint) and tr2 were calculated.
Data set [2] can be described thus: Human hepatocyte stability assay. The settings on record: human hepatocytes, 1 μM, 120 min incubation.
Method: as §1

Turning to `CC(C)n1c(C(C)(C)O)nc2c(F)cc(-c3nc(N[C@@H]4C[C@H]5CO[C@H](O5)[C@H]4O)ncc3Cl)cc21` [Compound 1, (1S,3R,4S,5R)-3-((5-chloro-4-(4-fluoro-2-(2-hydroxypropan-2-yl)-1-isopropyl-1H-benzo[d]imidazol-6-yl)pyrimidin-2-yl)amino)-6,8-dioxabicyclo[3.2.1]octan-4-ol], under “both, human, 1 μM”, the “Hepatic Extraction Ratio (ER)” value was found to be 0.23 and the “Predicted Hepatic CLH” value is 4.9 mL/min/kg. Besides, the “In vitro CLint (μL/min/10^6 cell)” value (human, hepatocytes) amounted to 2.5 μL/min/10^6 cell. In data set [1], this molecule registered an intrinsic clearance (CLint scaled) at 1 μM of 6.4 mL/min/kg and a half-life at 1 μM of 9.26 h.

In the case of `CC(C)n1c(C(C)(C)O)nc2c(F)cc(-c3nc(N[C@@H]4CCOC[C@H]4O)ncc3Cl)cc21` [Reference Compound, PF-07220060, reference compound], the “t1/2” value in data set [2] was determined as 2.057 h. Besides, under “hepatocytes”, the “Scaled-up CLint” value was 28.6 mL/min/kg. The “In vitro CLint (μL/min/10^6 cell)” value (human, hepatocytes) amounted to 11.3 μL/min/10^6 cell.
